Results reported in patent US20240409662A1, “ANTIBODY MASKS AND USES THEREOF” (Vibrant Pharma Limited, priority 2021, published 2024).
“Also recorded” adds a separate entry of the source. No end group written: not given here.

B1: L4-G3A (bispecific antibody)
heavy: QDANEEGSGSPLGLGSGSEVKLLESGGGLVQPKGSLKLSCAASGFTFNTYAMNWVRQAPGKGLEWVARIRSKYNNYATYYADSVKDRFTISRDDSQSILYLQMNNLKTEDTAMYYCVRHGNFGNSYVSWFAYWGQGTLVTVSS
light: QAVVTQESALTTSPGETVTLTCRSSTGAVTTSNYANWVQEKPDHLFTGLIGGTNKRAPGVPARFSGSLIGDKAALTITGAQTEDEAIYFCALWYSNLWVFGGGTKVEIK
chain: EVQLVESGGGFVQAGESLTLSCTSSTLTFTPYRMAWYRQAPGKQRDLVADISSGDGRTTNYADFAKGRFTISRDNIKNTVFLRMTNLKPEDTAVYYCNTFVSFVGIARSWGQGTQVTVSSESKYGPPCPPCPAPEAAGGPSVFLFPPKPKDTLMISRTPEVTCVVVDVSQEDPEVQFNWYVDGVEVHNAKTKPREEQFNSTYRVVSVLTVLHQDWLNGKEYKCKVSNKGLPSSIEKTISKAKGQPREPQVCTLPPSQEEMTKNQVSLSCAVKGFYPSDIAVEWESNGQPENNYKTTPPVLDSDGSFFLVSRLTVDKSRWQEGNVFSCSVMHEALHNRFTQKSLSLSL
B2: MMP9-digested L4-D2E (bispecific antibody, not shown: small tags and cut ends)
heavy: EVKLLESGGGLVQPKGSLKLSCAASGFTFNTYAMNWVRQAPGKGLEWVARIRSKYNNYATYYADSVKDRFTISRDDSQSILYLQMNNLKTEDTAMYYCVRHGNFGNSYVSWFAYWGQGTLVTVSS
light: B1 light
chain: B1 chain
B3: MMP9-digested L5-D2E (bispecific antibody, not shown: small tags and cut ends)
heavy: B2 heavy
light: B1 light
chain: B1 chain
B4: L6-D2E (bispecific antibody)
heavy: QEGNEESSGGGSPLGLSSGGGSEVKLLESGGGLVQPKGSLKLSCAASGFTFNTYAMNWVRQAPGKGLEWVARIRSKYNNYATYYADSVKDRFTISRDDSQSILYLQMNNLKTEDTAMYYCVRHGNFGNSYVSWFAYWGQGTLVTVSS
light: B1 light
chain: B1 chain
B5: L5-D2E (bispecific antibody)
heavy: QEGNEESSGGSPLGLSSGGSEVKLLESGGGLVQPKGSLKLSCAASGFTFNTYAMNWVRQAPGKGLEWVARIRSKYNNYATYYADSVKDRFTISRDDSQSILYLQMNNLKTEDTAMYYCVRHGNFGNSYVSWFAYWGQGTLVTVSS
light: B1 light
chain: B1 chain
B6: L7-D2G (bispecific antibody)
heavy: QGGNEESSGGSGSPLGLSSGGSGSEVKLLESGGGLVQPKGSLKLSCAASGFTFNTYAMNWVRQAPGKGLEWVARIRSKYNNYATYYADSVKDRFTISRDDSQSILYLQMNNLKTEDTAMYYCVRHGNFGNSYVSWFAYWGQGTLVTVSS
light: B1 light
chain: B1 chain

Biological target: CD3 on human PBMC (human, UniProt P07766 23-207)
Sequence (P07766 23-207): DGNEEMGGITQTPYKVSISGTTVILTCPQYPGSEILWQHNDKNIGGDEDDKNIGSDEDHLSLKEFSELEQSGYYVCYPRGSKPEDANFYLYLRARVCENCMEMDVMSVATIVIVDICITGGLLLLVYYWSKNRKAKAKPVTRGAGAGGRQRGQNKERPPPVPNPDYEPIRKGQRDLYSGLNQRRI
Assay: cell-based or functional assay
Settings: not given

Compared with B1, B4 is lower in “Digested vs. masked (ratio of killing EC50)” value: 144 fold for the first, 32 fold for the second.

First: B5
Second: B6
The “Digested vs. masked (ratio of killing EC50)” value of the first is higher: 32 fold for the first, 9 fold for the second.

Compared with B1, B2 is 160-fold lower in “EC50 of M-TCE-induced killing of HT29 cells in the presence of human PBMC” value (from here on “EC50 of M-TCE-induced killing … of human PBMC”): 1.72 nM for the first, 0.011 nM for the second.

Going from B3 to B4, the “EC50 of M-TCE-induced killing … of human PBMC” value rises from 0.013 nM to 0.317 nM (24-fold).

Compared with B5, B6 is 4.4-fold lower in “EC50 of M-TCE-induced killing … of human PBMC” value: 0.418 nM for the first, 0.096 nM for the second.

Biological target: SP34
Assay: BLI affinity of biotinylated N-terminal CD3ε peptides (on SA biosensor) to SP34 as analyte
Assay type: binding
Settings: peptide immobilized
Description: Bio-Layer Interferometry (BLI) technique was employed for the measurement of protein-protein interactions in this study. A Octet Red96 system and Streptavidin (SA) or AHC biosensors (ForteBio, Fremont) were utilized.
To measure the binding of SP34 to CD3ε peptides, the peptides were immobilized on the SA biosensor through SA-biotin interaction according the manufacturer's instruction. After running PBS with 0.01% Tween-20 buffer to stabilize baselines, the biosensors were dipped into solid black 96-well plates (Greiner Bio-One, Cat. #65520, Monroe, North Carolina, USA) containing SP34 in indicated concentrations. Association and dissociation were measured accordingly, and binding kinetics were calculated using ForteBio's Data Analysis 12.0 software.
BLI technology was employed to measure the affinity of the six peptides to SP34 with a ForteBio Red96. These peptides were immobilized on the SA Biosensor and their affinities were measured using SP34 as the analyte. The binding sensorgrams indicate that SP34 binds to all six peptides with very similar profiles (FIG. 1C). The affinities of the bindings were determined as between 1-4 nM (Table 1), very similar to that of CD3δε/SP34 binding. […] It is further hypothesized that a N-terminal CD3ε peptide […] can bind to SP34 as well.

Compared with “CD3ε-p2: N-terminal human CD3ε peptide with C-terminal GGGGS linker, biotinylated (QDGNEEMGGGGGS; not fully specified (C-terminus); also: biotinylated)”, “CD3ε-p3: N-terminal human CD3ε peptide with C-terminal GGGGS linker, biotinylated (QDGNEEMGGITGGGGS; not fully specified (C-terminus); also: biotinylated)” is 1.8-fold lower in Kd: 3.6 nM for the first, 2 nM for the second. The second binds more tightly here.

Compared with “CD3ε-p5: N-terminal human CD3ε peptide with C-terminal GGGGS linker, biotinylated (QDGNEEMGGITQTPYKVGGGGS; not fully specified (C-terminus); also: biotinylated)”, “CD3ε-p6: N-terminal human CD3ε peptide with C-terminal GGGGS linker, biotinylated (QDGNEEMGGITQTPYKVSISGGGGS; not fully specified (C-terminus); also: biotinylated)” is 1.9-fold higher in Kd: 1.8 nM for the first, 3.5 nM for the second. The first binds more tightly here.

In the case of “CD3ε-p7: N-terminal human CD3ε peptide with C-terminal GGGGS linker, biotinylated (QDGNEEMGGITQTPYKVSISGTTGGGGS; not fully specified (C-terminus); also: biotinylated, site not given here)”, the Kd is reported as 1.3 nM.

“CD3ε-p2: N-terminal human CD3ε peptide with C-terminal GGGGS linker, biotinylated (QDGNEEMGGGGGS; not fully specified (C-terminus); also: biotinylated)” and “CD3ε-p3: N-terminal human CD3ε peptide with C-terminal GGGGS linker, biotinylated (QDGNEEMGGITGGGGS; not fully specified (C-terminus); also: biotinylated)” are within 1.5-fold of each other in ka: 65000 M⁻¹ s⁻¹ for the first, 56000 M⁻¹ s⁻¹ for the second.

“CD3ε-p5: N-terminal human CD3ε peptide with C-terminal GGGGS linker, biotinylated (QDGNEEMGGITQTPYKVGGGGS; not fully specified (C-terminus); also: biotinylated)” and “CD3ε-p6: N-terminal human CD3ε peptide with C-terminal GGGGS linker, biotinylated (QDGNEEMGGITQTPYKVSISGGGGS; not fully specified (C-terminus); also: biotinylated)” are within 1.5-fold of each other in ka: 54000 M⁻¹ s⁻¹ for the first, 46000 M⁻¹ s⁻¹ for the second.

“CD3ε-p7: N-terminal human CD3ε peptide with C-terminal GGGGS linker, biotinylated (QDGNEEMGGITQTPYKVSISGTTGGGGS; not fully specified (C-terminus); also: biotinylated, site not given here)” gave a ka of 100000 M⁻¹ s⁻¹.

Compared with “CD3ε-p2: N-terminal human CD3ε peptide with C-terminal GGGGS linker, biotinylated (QDGNEEMGGGGGS; not fully specified (C-terminus); also: biotinylated)”, “CD3ε-p3: N-terminal human CD3ε peptide with C-terminal GGGGS linker, biotinylated (QDGNEEMGGITGGGGS; not fully specified (C-terminus); also: biotinylated)” is 2.2-fold lower in kd: 0.00024 s⁻¹ for the first, 0.00011 s⁻¹ for the second.

Compared with “CD3ε-p5: N-terminal human CD3ε peptide with C-terminal GGGGS linker, biotinylated (QDGNEEMGGITQTPYKVGGGGS; not fully specified (C-terminus); also: biotinylated)”, “CD3ε-p6: N-terminal human CD3ε peptide with C-terminal GGGGS linker, biotinylated (QDGNEEMGGITQTPYKVSISGGGGS; not fully specified (C-terminus); also: biotinylated)” is 1.6-fold higher in kd: 9.8e-05 s⁻¹ for the first, 0.00016 s⁻¹ for the second.

“CD3ε-p7: N-terminal human CD3ε peptide with C-terminal GGGGS linker, biotinylated (QDGNEEMGGITQTPYKVSISGTTGGGGS; not fully specified (C-terminus); also: biotinylated, site not given here)” gave a kd of 0.00013 s⁻¹.

Test system: SP34
Assay: ELISA of SP34 binding to coated CD3ε1-27-Fc fusion proteins
Settings: FIG. 2A
Procedure: Examination of binding of SP34 to CD3ε1-27-Fc fusion proteins was conducted by ELISA. 100 μL of 2 μg/mL fusion protein was coated on 96 well microtiter plate (Nunc) at room temperature (RT) overnight. After blocking the wells with 3% milk-PBS (3% non-fat milk in 137 mM NaCl, 2.7 mM KCl, 10 mM Na2HPO4 1.8 mM KH2PO4) at RT for 1 hr and 6 washes with 0.05% PBST (0.05% Tween-20 in PBS), SP34 (5 μg/mL, 50 μL/well) was added to the wells as the first antibody and allowed for incubation at 37° C. for 1 hr. The wells were washed for 6 times with PBST after the incubation, and the second antibody horseradish peroxidase (HRP) labeled anti-Kappa light chain (Sigma, 1:6,000 dilution, 50 μL/well) was added and allowed for incubation at RT for 50 min. After 6 washes with PBST, 3,3′, 5,5′-Tetramethylbenzidine (TMB) was added to develop color, and 1M HCl was then added to stop the reaction. ELISA titer was read with a microtiter plate reader (Thermo Fisher) at 450 nm wavelength.

In the case of “D2C: D2C mutant of the CD3ε1-27-Fc fusion protein”, the “binding of SP34 to fusion protein” value is reported as “significant binding; also recorded: maintained binding”.
For “D2E: D2E mutant of the CD3ε1-27-Fc fusion protein”, the “binding of SP34 to fusion protein” value was “significant binding; also recorded: maintained binding”.
With “D2G: D2G mutant of the CD3ε1-27-Fc fusion protein” the “binding of SP34 to fusion protein” value was “significant binding; also recorded: maintained binding”.
With “D2N: D2N mutant of the CD3ε1-27-Fc fusion protein” the “binding of SP34 to fusion protein” value was “significant binding; also recorded: maintained binding”.
“G3A: G3A mutant of the CD3ε1-27-Fc fusion protein” was tested, and the “binding of SP34 to fusion protein” value was “significant binding; also recorded: maintained binding”.
